In patent US10253002B2, “Compounds and methods of treating infections” (Neoculi Pty Ltd., priority 2013, dated 2019):
≈ marks a conversion by molar mass, not a printed value.

Experiments:
[1] = tested on: RNA synthesis in S. aureus ATCC 29213; experiment: Macromolecular synthesis assay: RNA synthesis ([3H] uridine); assay type: cell-based, Staphylococcus aureus; settings: 0.25 to 8 fold the MIC; rifampicin positive control
Description: Cells were grown at 35° C. overnight on Trypticase Soy agar. A colony from the plate was used to inoculate 10 ml of Mueller Hinton broth II (MHBII), and the culture was grown to early exponential growth phase (OD600==0.2 to 0.3) while incubating in a shaker at 35° C. and 200 rpm.
When cells reached early exponential phase, 100 μL of culture was added to triplicate wells containing various concentrations of test compound or control antibiotics (5 μL) at 20× the final concentration in 100% DMSO. A 5% DMSO treated culture served as the “no drug” control for all experiments. Cells were added in MHBII at 105% to account for the volume of drug added to each reaction or in M9 minimal medium for protein synthesis reactions. Following 15 min incubation at room temperature, either [^3H] thymidine (DNA synthesis), [^3H] uridine (RNA synthesis) or [^3H] leucine (protein synthesis) was added at 0.5-1.0 μCi per reaction, depending on the experiment. Reactions were allowed to proceed at room temperature for 15-30 min and then stopped by adding 12 μL of cold 5% trichloroacetic acid (TCA) or 5% TCA/2% casamino acids (protein synthesis only). […] After washing three times with 5 ml of cold 5% TCA, the filters were rinsed two times with 5 mL 100% ethanol, allowed to dry, and then counted using a Beckman LS3801 liquid scintillation counter.

[2] = tested on: methicillin-susceptible S. aureus ATCC 49775; experiment: Time-kill assays (microdilution and 10 ml macrodilution), Example 4; assay type: cell-based, Staphylococcus aureus
Description: Bactericidal activity in macrodilution assays was identified as a 3 log10 decrease from the initial inoculum size. Bacteria were cultured overnight at 37° C. on SBA. Colonies were suspended in broth and the turbidity was adjusted to a 0.5 McFarland standard to obtain a bacterial suspension of […]. Bacterial suspensions were incubated at 37° C. with shaking. Aliquots were removed at 0, 1, 2, 4, 8, 12, and 24 h after antimicrobial addition, diluted, plated onto SBA and incubated for 48 h at 37° C. for viable count determination. Turbidimetric growth curves for S. aureus were obtained for Microtiter plate assays by monitoring optical density changes using a Bio-Rad Benchmark Plus microplate spectrophotometer at 600 nm. Optical densities were measured at 0, 1, 2, 4, 8, 12, and 24 h after antimicrobial addition.

S. pneumoniae strain D39 [3] = experiment: Micro-broth dilution time kill studies; assay type: cell-based, Streptococcus pneumoniae; settings: D39 treated with 54 μg/mL NCL812
S. pneumoniae strain D39 [4] = experiment: Macro-broth dilution time kill studies; assay type: cell-based, Streptococcus pneumoniae
Description: Bacterial suspensions and working antibiotic stocks were prepared as described above. [For preparing macro-broth dilutions, 20 mL tubes were filled each with 9 mL of 4% LHB:CAMHB. 9 mL of a working antimicrobial stock was diluted 1:2 when added to one of the tubes, and then serial diluted down from a high to low concentration of antimicrobial. 1 mL of S. pneumoniae bacterial suspension was added to the appropriate tubes, including the positive control. […] At every 2-3 h during the first 12 h of growth and then at 24 h and 48 h, 50 μL of each bacterial suspension was spread plated onto HBA and incubated at 37° C. with 5% CO2 for 16-24 h.]
Table 17 below indicates the concentrations used for each antimicrobial. Cultures were incubated at 37° C. in 5% CO2 with gentle manual tilting every 10 min for the first 12 h. Viable counts from 50 μL aliquots of each concentration were read following incubation at 37° C. in 5% CO2 for 24 h. The pH of each sample was measured at specific time points using pH indicator strips. Confluent growth was defined when more than 1000 colonies were counted per plate. A bactericidal effect was defined as a 1000 fold reduction (99.9%) of the original cell suspension determined at 24 h for each concentration.

VRE = experiment: Kill kinetics assay, Example 7; assay type: cell-based, Enterococcus spp.
Description: MRSA/VRE were grown overnight on Columbia SBA at 37° C. A few colonies of bacteria were then suspended in CAMHB and adjusted to an optical density of 0.08 to 0.10. The bacterial suspension was diluted 1:10. […] The tubes were incubated at 37° C. In order to determine the number of viable bacteria present at various time points, a 100 μL aliquot was removed from each tube and diluted in normal saline. Then, 100 μL of each dilution was spread onto colony count agar, in duplicate, and incubated for 48 h at 37° C. After 24 h the numbers of colonies present on each plate were counted and therefore the number of viable bacteria present in the original suspension enumerated. Plates were re-checked after 48 hours.

S. aureus MK01 and KC01 = experiment: MIC, Example 8; assay type: cell-based; settings: Staphylococcus aureus, MK01ANDKC01, S. aureus KC01
Description: Two Staphylococcus aureus isolates were used in the following experiments; S. aureus MK01 a human skin strain, and S. aureus KC01 an equine skin strain. These isolates were identified by Gram stain and biochemical methods, including the Remel Staphaurex commercial kit. […] As this isolate has previously been speciated, it was not subjected to further testing, except for observation of pure, characteristic growth on blood agar.

[5] = Solubility in DMSO and CAMHB, Example 4
Description: Test antimicrobials were selected on the basis of solubility and antimicrobial activity from preliminary studies.

N=C(N/N=C/c1ccc(Cl)cc1)N/N=C/c1ccc(Cl)cc1 [NCL812, 1,3-bis[(E)-(4-chlorophenyl)methyleneamino]guanidine]
inhibition of RNA synthesis [1]: very similar to the DNA synthesis study
bacterial growth, turbidimetric growth curve ([2]; ATCC 49775, 1× and 4× the MIC, microdilution, up to 24 h): no visible bacterial growth
remained bactericidal until (then regrowth) ([2]; ATCC 49775, 10 mL macrodilution, 1× and 4× the MIC): 8 to 12 h
bacterial regrowth observed at, after antimicrobial addition ([2]; ATCC 49775 time-kill): 12 h
time at which treated D39 entered a log phase of growth (S. pneumoniae strain D39 [3]): 6 h
growth in viable counts (S. pneumoniae strain D39 [4]; 2 μg/mL NCL812): Consistent confluent growth
time post-exposure at which compound appeared to be inactivated (increased growth after) (S. pneumoniae strain D39 [4]; NCL812 at 4 μg/mL and 8 μg/mL): 11 h
time to eliminate bacterial growth (S. pneumoniae strain D39 [4]; between 16 μg/mL and 64 μg/mL NCL812): ≤ 8 h
reduction in the viable count compared to the control (VRE; at 4 h): ~2 log10
reduction in the viable count compared to the control (VRE; at 8 h): ~2.5 log10
growth of bacteria versus control (VRE; at 24 h): no longer as significantly reduced in comparison to the control
MIC (S. aureus MK01 and KC01): 2 µg/mL (≈ 5.98 µM)
Solubility CAMHB ([5]; cation-adjusted Mueller-Hinton II broth): Cloudy precipitates
Solubility DMSO ([5]; dimethyl sulfoxide): Good
